In US20240132431A1, “METHOD FOR ALKYLATING ACIDIC FUNCTIONAL GROUP” (Chugai Seiyaku Kabushiki Kaisha, priority 2021, published 2024):

Target: T1, Bcl-2 protein (Recombinant Human Bcl-2 Protein) (Homo sapiens, UniProt P10415)
T1 construct: purchased Novus NBP2-34889
Assay: Binding evaluation of mixture library compounds to Bcl-2 using AS-MS (affinity selection mass spectrometry)
Conditions: AS-MS on the mixture of 1200 library compounds, ASMS Ratio(%)=(A−C)/B×100; for ASMS ratio (%) n = 1: replicate n = 1; for ASMS ratio (%) n = 2: replicate n = 2
In short: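 Readout is ASMS Ratio (%), (A−C)/B×100, from reversed-phase LC/MS of SEC-passed extracts, with protein-free unfiltered standard (B) and protein-free SEC blank (C). Recombinant human Bcl-2 at 20 μM final met ~1200 pooled compounds at […] each for 1 h, 23° C., dark, in Tris-HCl pH 7.4 buffer.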

T1 sequence (P10415 whole entry): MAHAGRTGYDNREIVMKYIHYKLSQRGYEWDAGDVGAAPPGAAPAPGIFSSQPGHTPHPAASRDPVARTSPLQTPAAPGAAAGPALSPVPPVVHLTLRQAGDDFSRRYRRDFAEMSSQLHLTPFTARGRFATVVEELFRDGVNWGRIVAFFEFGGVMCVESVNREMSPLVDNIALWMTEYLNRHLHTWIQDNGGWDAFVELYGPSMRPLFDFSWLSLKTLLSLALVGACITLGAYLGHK

Structure (SMILES): CCOc1cccc(-c2ccc(C(=O)N3CCN(c4ccc(C(=O)Nc5ccc(OC)cc5)nn4)CC3)cc2C)c1 [B1O003-01, 6-[4-[4-(3-Ethoxyphenyl)-3-methylbenzoyl]piperazin-1-yl]-N-(4-methoxyphenyl)pyridazine-3-carboxamide]
- ASMS ratio (%) n = 1: 0.0%
- ASMS ratio (%) n = 2: 0.0%

Structure (SMILES): CCOc1cncc(-c2ccc(C(=O)N3CCN(c4ccc(C(=O)Nc5ccc(OC)cc5)nn4)CC3)cc2C)c1 [B1O004-01, 6-[4-[4-(5-Ethoxypyridin-3-yl)-3-methylbenzoyl]piperazin-1-yl]-N-(4-methoxyphenyl)pyridazine-3-carboxamide]
- ASMS ratio (%) n = 1: 2.8%
- ASMS ratio (%) n = 2: 0.4%

Structure (SMILES): CCOc1cccc(-c2ccc(C(=O)N3CCN(c4ccc(C(=O)Nc5ccc(OC)cc5)nn4)CC3)cc2F)c1 [B1O005-01, 6-[4-[4-(3-Ethoxyphenyl)-3-fluorobenzoyl]piperazin-1-yl]-N-(4-methoxyphenyl)pyridazine-3-carboxamide]
- ASMS ratio (%) n = 1: 3.6%
- ASMS ratio (%) n = 2: −2.5%

Structure (SMILES): CCOc1cncc(-c2ccc(C(=O)N3CCN(c4ccc(C(=O)Nc5ccc(OC)cc5)nn4)CC3)cc2F)c1 [B1O006-01, 6-[4-[4-(5-Ethoxypyridin-3-yl)-3-fluorobenzoyl]piperazin-1-yl]-N-(4-methoxyphenyl)pyridazine-3-carboxamide]
- ASMS ratio (%) n = 1: 4.7%
- ASMS ratio (%) n = 2: 0.8%

Structure (SMILES): CCOc1cccc(C#Cc2ccccc2C(=O)N2CCN(c3ccc(C(=O)Nc4ccc(OC)cc4)nn3)CC2)c1 [B1O007-01, 6-[4-[2-[2-(3-Ethoxyphenyl)ethynyl]benzoyl]piperazin-1-yl]-N-(4-methoxyphenyl)pyridazine-3-carboxamide]
- ASMS ratio (%) n = 1: 4.5%
- ASMS ratio (%) n = 2: 0.9%

Structure (SMILES): CCOc1cncc(C#Cc2ccccc2C(=O)N2CCN(c3ccc(C(=O)Nc4ccc(OC)cc4)nn3)CC2)c1 [B1O008-01, 6-[4-[2-[2-(5-Ethoxypyridin-3-yl)ethynyl]benzoyl]piperazin-1-yl]-N-(4-methoxyphenyl)pyridazine-3-carboxamide]
- ASMS ratio (%) n = 1: 1.1%
- ASMS ratio (%) n = 2: 1.3%

Structure (SMILES): CCOc1cccc(C#Cc2cncc(C(=O)N3CCN(c4ccc(C(=O)Nc5ccc(OC)cc5)nn4)CC3)c2)c1 [B1O009-01, 6-[4-[5-[2-(3-Ethoxyphenyl)ethynyl]pyridine-3-carbonyl]piperazin-1-yl]-N-(4-methoxyphenyl)pyridazine-3-carboxamide]
- ASMS ratio (%) n = 1: 1.1%
- ASMS ratio (%) n = 2: 1.3%

Structure (SMILES): CCOc1cncc(C#Cc2cncc(C(=O)N3CCN(c4ccc(C(=O)Nc5ccc(OC)cc5)nn4)CC3)c2)c1 [B1O010-01, 6-[4-[5-[2-(5-Ethoxypyridin-3-yl)ethynyl]pyridine-3-carbonyl]piperazin-1-yl]-N-(4-methoxyphenyl)pyridazine-3-carboxamide]
- ASMS ratio (%) n = 1: 0.0%
- ASMS ratio (%) n = 2: 0.0%

Structure (SMILES): CCOc1cccc(-c2ccccc2CCC(=O)N2CCN(c3ccc(C(=O)Nc4ccc(OC)cc4)nn3)CC2)c1 [B1O011-01, 6-[4-[3-[2-(3-Ethoxyphenyl)phenyl]propanoyl]piperazin-1-yl]-N-(4-methoxyphenyl)pyridazine-3-carboxamide]
- ASMS ratio (%) n = 1: 0.0%
- ASMS ratio (%) n = 2: 4.3%

Structure (SMILES): CCOc1cncc(-c2ccccc2CCC(=O)N2CCN(c3ccc(C(=O)Nc4ccc(OC)cc4)nn3)CC2)c1 [B1O012-01, 6-[4-[3-[2-(5-Ethoxypyridin-3-yl)phenyl]propanoyl]piperazin-1-yl]-N-(4-methoxyphenyl)pyridazine-3-carboxamide]
- ASMS ratio (%) n = 1: 0.8%
- ASMS ratio (%) n = 2: −0.9%

Structure (SMILES): CCOc1cccc(-c2ccc(C(=O)N3CCN(c4ccc(C(=O)Nc5ccc(OC)cc5)nn4)CC3)c3ccccc23)c1 [B1O013-01, 6-[4-[4-(3-Ethoxyphenyl)naphthalene-1-carbonyl]piperazin-1-yl]-N-(4-methoxyphenyl)pyridazine-3-carboxamide]
- ASMS ratio (%) n = 1: 2.2%
- ASMS ratio (%) n = 2: −4.0%
